Consider 1 substance from US20260174857A1, “METHODS OF ADJUVANT TREATMENT FOR ALLERGY IMMUNOTHERAPY” (Revelation Biosciences, Inc., priority 2022, published 2026).

Experiment [1] addresses T1, TLR4 (Rattus norvegicus, UniProt Q9QX05).
T1 construct: from tissue; host or cells: whole animal (rat), in vivo
T1 sequence (Q9QX05 26-835): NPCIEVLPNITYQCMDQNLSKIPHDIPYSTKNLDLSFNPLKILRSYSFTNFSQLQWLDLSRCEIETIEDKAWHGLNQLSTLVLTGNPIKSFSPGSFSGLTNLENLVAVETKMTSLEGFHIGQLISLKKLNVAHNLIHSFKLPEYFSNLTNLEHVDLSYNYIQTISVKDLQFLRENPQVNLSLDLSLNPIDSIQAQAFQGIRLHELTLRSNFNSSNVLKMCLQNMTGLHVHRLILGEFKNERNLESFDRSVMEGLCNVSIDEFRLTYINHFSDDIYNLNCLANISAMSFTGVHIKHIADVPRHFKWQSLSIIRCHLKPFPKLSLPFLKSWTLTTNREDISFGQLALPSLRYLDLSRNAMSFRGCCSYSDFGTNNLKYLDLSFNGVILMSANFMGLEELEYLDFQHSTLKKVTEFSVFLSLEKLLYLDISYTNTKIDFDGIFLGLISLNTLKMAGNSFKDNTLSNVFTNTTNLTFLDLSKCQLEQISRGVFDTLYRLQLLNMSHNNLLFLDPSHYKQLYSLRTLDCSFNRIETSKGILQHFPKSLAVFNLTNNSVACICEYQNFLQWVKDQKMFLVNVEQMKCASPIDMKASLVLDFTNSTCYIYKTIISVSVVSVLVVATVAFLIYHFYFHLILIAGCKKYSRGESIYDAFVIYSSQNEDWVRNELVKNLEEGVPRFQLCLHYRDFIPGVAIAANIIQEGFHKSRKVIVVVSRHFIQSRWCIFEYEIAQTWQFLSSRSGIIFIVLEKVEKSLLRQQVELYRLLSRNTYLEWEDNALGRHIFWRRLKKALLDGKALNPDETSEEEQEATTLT
The experiment can be described thus: IL-6 and IL-10 cytokine response after IV administration in rats. It is filed as in vivo. The source says: (§1) IP-10 is an important cytokine associated with stimulation of the TRIF pathway. Evidence of IL-6 and IL-10 and IP-10 upregulation is confirmation that PHAD preparations as noted in this application are capable of TLR4 stimulation, with a bias toward stimulating the TRIF pathway, which is further confirmation of the amelioration or reduction of activity mediated through the MyD88 signaling pathway, which supports the amelioration of pro-inflammatory cytokine production.

For experiment [2], the target named is T2, TLR4 (Mus musculus, UniProt Q9JHF9+Q9QUK6).
T2 construct: endogenous in cells; host or cells: J774 mouse macrophage cell line
T2 sequence (Q9QUK6 26-835): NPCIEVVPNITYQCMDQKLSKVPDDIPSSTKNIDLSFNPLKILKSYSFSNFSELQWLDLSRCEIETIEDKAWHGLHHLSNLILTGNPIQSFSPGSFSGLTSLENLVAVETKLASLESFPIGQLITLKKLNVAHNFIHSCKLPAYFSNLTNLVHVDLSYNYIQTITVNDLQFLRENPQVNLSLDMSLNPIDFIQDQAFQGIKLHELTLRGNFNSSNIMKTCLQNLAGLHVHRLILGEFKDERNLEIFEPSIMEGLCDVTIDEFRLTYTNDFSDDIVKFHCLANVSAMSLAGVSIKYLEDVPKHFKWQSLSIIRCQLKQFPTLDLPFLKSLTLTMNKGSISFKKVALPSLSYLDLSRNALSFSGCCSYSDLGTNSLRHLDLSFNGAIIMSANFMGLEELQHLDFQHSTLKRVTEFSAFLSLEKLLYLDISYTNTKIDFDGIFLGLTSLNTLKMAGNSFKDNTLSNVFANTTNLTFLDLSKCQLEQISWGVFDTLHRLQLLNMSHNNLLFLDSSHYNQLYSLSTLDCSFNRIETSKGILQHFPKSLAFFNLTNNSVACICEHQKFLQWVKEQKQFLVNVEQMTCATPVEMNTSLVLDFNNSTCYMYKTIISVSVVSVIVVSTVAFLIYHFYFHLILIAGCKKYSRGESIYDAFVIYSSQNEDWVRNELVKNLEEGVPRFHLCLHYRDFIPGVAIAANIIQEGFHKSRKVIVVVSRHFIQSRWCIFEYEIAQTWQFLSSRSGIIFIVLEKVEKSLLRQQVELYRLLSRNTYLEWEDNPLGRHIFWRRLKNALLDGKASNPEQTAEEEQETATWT
T2 sequence (Q9JHF9 19-160): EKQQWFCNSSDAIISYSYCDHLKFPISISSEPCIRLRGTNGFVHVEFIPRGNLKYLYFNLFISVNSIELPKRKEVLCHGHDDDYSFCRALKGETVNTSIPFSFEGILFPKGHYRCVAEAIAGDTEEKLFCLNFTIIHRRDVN
The experiment in a line: in vitro cell based activity assay, IP-10 upregulation in mouse macrophages (J774 cell line).
From the text: Interferon-β is required for production of IP-10, therefore IP-10 is considered a surrogate marker for Type I interferon activity.
as §1

Where [3] appears, read: second dose at 24 hours, compared with first dose.

Turning to “phosphorylated hexaacyl disaccharide [PHAD]”, in experiment [1] (setting [3]), the “anti-inflammatory cytokines (e.g., IL-10) following a second dose” value was “larger increase” and the “pro-inflammatory cytokines (e.g., IL-6) following a second dose” value was “smaller increase”. Moreover, the “inflammatory and protective cytokines following a first dose” value in experiment [1] (two doses of PHAD, after first dose) was “initial increase”. For the same substance, the “upregulation of IP-10 as a result of TLR4 stimulation” value in experiment [2] is on record as “IP-10 upregulation as a function of dose”.
